Active and inactive are the calls of the source. The calls are words filed in the database; no cut-off is given here.
Assays:
[1] = molecular target: T1, Serine/threonine-protein kinase PLK1 (Homo sapiens, UniProt P53350); test: Binding affinity to […] (unknown origin) using MAGPMQS[pT]PLNGAKK tracer peptide as substrate by fluorescence polarization binding assay
[2] = system: HRPE; test: Antiproliferative activity against human RPE cells expressing C67V mutant PLK1 assessed as reduction in cell viability after 72 hrs by MTT assay; format: functional, cell-based
[3] = system: HeLa; test: Antiproliferative activity against human HeLa cells assessed as reduction in cell viability incubated for 72 hrs by MTT assay; format: functional, cell-based
[4] = system: HRPE; test: Antiproliferative activity against human RPE cells expressing wild-type PLK1 assessed as reduction in cell viability after 72 hrs by MTT assay; format: functional, cell-based
[5] = system: PC-3; test: Antiproliferative activity against human PC-3 cells assessed as reduction in cell viability incubated for 72 hrs by MTT assay; format: functional, cell-based; conditions: PC-3, 72 h
[6] = molecular target: T1, Serine/threonine-protein kinase PLK1; test: Induction of PLK1 degradation in human PC-3 cells at 45 uM pretreated with proteosome inhibitor MG132 for 1 hr followed by compound addition and measured after 23 hrs by Western blot analysis relative to control; format: cell-based; set-up: scale not given: the % may be the effect or the level left
[7] = system: PC-3; test: Induction of cell cycle arrest in human PC-3 cells assessed as reduction in G2/M phase at 45 uM incubated for 23 hrs in presence of colcemid by flow cytometry analysis (reference value: 67%); format: functional; set-up: scale not given: the % may be the effect or the level left
[8] = molecular target: T1, Serine/threonine-protein kinase PLK1; test: Induction of PLK1 degradation in human PC-3 cells at 10 uM measured for 23 hrs by Western blot analysis relative to control; format: cell-based
[9] = molecular target: T1, Serine/threonine-protein kinase PLK1; test: Inhibition of PLK1 in human PC-3 cells assessed as reduction in phosphorylation of TCTP at ser46 measured after 23 hrs by immunoblotting analysis; format: cell-based
[10] = molecular target: T1, Serine/threonine-protein kinase PLK1; test: Induction of PLK1 degradation in human PC-3 cells at 10 uM pretreated with proteosome inhibitor MG132 for 1 hr followed by compound addition and measured after 23 hrs by Western blot analysis relative to control; format: cell-based; set-up: scale not given: the % may be the effect or the level left
[11] = molecular target: T1, Serine/threonine-protein kinase PLK1; test: Induction of PLK1 degradation in human PC-3 cells at 45 uM measured for 23 hrs by Western blot analysis relative to control; format: cell-based
[12] = molecular target: T1, Serine/threonine-protein kinase PLK1; test: Binding affinity to PLK1 in human PC-3 cells incubated for 2 hrs followed by heat shock for 10 mins by cellular thermal shift assay; format: cell-based
[13] = molecular target: T1, Serine/threonine-protein kinase PLK1; test: Inhibition of PLK1 in human PC-3 cells assessed as reduction in phosphorylation of TCTP at ser46 measured after 23 hrs in presence of colcemid by immunoblotting analysis; format: cell-based
[14] = molecular target: T1, Serine/threonine-protein kinase PLK1; test: Induction of PLK1 degradation in human PC-3 cells at 30 uM pretreated with proteosome inhibitor MG132 for 1 hr followed by compound addition and measured after 23 hrs by Western blot analysis relative to control; format: cell-based; set-up: scale not given: the % may be the effect or the level left
[15] = molecular target: T1, Serine/threonine-protein kinase PLK1; test: Induction of PLK1 degradation in human PC-3 cells measured for 23 hrs by Western blot analysis; format: cell-based
[16] = molecular target: T1, Serine/threonine-protein kinase PLK1; test: Induction of PLK1 degradation in human PC-3 cells at 30 uM measured for 23 hrs by Western blot analysis relative to control; format: cell-based
[17] = molecular target: T1, Serine/threonine-protein kinase PLK1; test: Induction of PLK1 degradation in human DU-145 cells measured for 23 hrs by Western blot analysis; format: cell-based; conditions: dose 10-45 µM
[18] = molecular target: T1, Serine/threonine-protein kinase PLK1; test: Induction of PLK1 degradation in human PC-3 cells measured after 23 hrs in presence of colcemid by Western blot analysis; format: cell-based; conditions: dose 10-45 µM
[19] = system: PC-3; test: Induction of cell cycle arrest in human PC-3 cells at 10 to 45 uM incubated for 23 hrs by flow cytometry analysis; format: functional, cell-based; conditions: dose 10-45 µM
[20] = molecular target: T1, Serine/threonine-protein kinase PLK1; test: Induction of PLK1 degradation in human PC-3 cells upto 60 uM measured after 23 hrs by Western blot analysis; format: cell-based; conditions: dose microM <=60, time 23.0 hrs
[21] = system: HRPE; test: Antiproliferative activity against human RPE cells expressing C67V mutant PLK1 assessed as reduction in cell viability upto 120 uM after 72 hrs by MTT assay; format: functional, cell-based
[22] = system: HRPE; test: Antiproliferative activity against human RPE cells expressing wild type PLK1 assessed as reduction in cell viability upto 120 uM after 72 hrs by MTT assay; format: functional, cell-based
[23] = system: PC-3; test: Induction of cell cycle arrest in human PC-3 cells at 60 uM incubated for 23 hrs in presence of colcemid by flow cytometry analysis; format: functional, cell-based

T1 sequence (P53350 whole entry): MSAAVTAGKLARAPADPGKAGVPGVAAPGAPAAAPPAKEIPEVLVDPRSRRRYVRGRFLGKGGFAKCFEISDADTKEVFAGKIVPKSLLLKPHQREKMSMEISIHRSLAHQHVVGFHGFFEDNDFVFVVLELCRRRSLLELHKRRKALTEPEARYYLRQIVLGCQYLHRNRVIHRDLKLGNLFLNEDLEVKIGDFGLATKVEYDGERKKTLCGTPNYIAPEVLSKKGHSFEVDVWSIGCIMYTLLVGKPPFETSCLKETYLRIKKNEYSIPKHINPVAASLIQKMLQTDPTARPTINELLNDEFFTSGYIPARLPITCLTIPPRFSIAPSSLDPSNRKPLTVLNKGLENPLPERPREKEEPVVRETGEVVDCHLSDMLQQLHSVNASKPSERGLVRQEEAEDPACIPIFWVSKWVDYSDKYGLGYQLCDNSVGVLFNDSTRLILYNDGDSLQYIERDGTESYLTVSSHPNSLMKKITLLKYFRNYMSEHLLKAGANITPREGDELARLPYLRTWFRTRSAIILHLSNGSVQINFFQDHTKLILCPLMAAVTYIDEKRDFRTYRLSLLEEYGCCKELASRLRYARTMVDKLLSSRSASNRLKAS

Row | Structure (SMILES) | IC50 [1] [µM] | IC50 [3] [µM] | IC50 [5] [µM] | also measured
1 | CCCCCCCSc1ccc(C(=O)Nc2ccc(C)cc2C(=O)O)cc1 | 23.4 | 9.4 | 14.3 | Activity [2]: Active; Activity [4]: Active
2 | CCCCCCCCNc1ccc(C(=O)Nc2cc(C)ccc2C(=O)O)cc1 | 27.1 |  | 20 | 
3 | Cc1ccc(C(=O)O)c(NC(=O)c2ccc(N)cc2)c1 | > 600 | > 120 | > 120 | 
4 | CCCCCCCCCCCCc1ccc(C(=O)Nc2cc(C)ccc2C(=O)O)cc1 | 25.5 |  | 17 | 
5 | CCCCCCCOc1ccc(C(=O)Nc2ccc(C)cc2C(=O)O)cc1 | 34.4 | 31.3 | 43 | 
6 | CCCCCCCCCc1ccc(C(=O)Nc2cc(C)ccc2C(=O)O)cc1 | 28 |  | 18.2 | 
7 | CCCCCCCCSc1ccc(C(=O)Nc2cc(C)ccc2C(=O)O)cc1 | 28.1 |  | 26 | 
8 | CCCCCCCNc1ccc(C(=O)Nc2ccc(C)cc2C(=O)O)cc1 | 42 | 18.7 | 31.3 | 
9 | CCCCCCCCSc1ccc(C(=O)Nc2ccc(C)cc2C(=O)O)cc1 | 26.8 | 12 | 15 | Activity [6]: 16%; Activity [7]: 20%; Activity [8]: 30%; inhibition [9]: Active; Activity [10]: 64%; Activity [11]: 7%; EC50 [12]: 650 nM; inhibition [13]: Active; Activity [14]: 25%; Activity [15]: Dose-Dependent Effect; Activity [16]: 5%; Activity [17]: Dose-Dependent Effect; Activity [18]: Dose-Dependent Effect; Activity [19]: inactive
10 | CCCCCCCCOc1ccc(C(=O)Nc2ccc(C)cc2C(=O)O)cc1 | 28.6 |  | 21.8 | 
11 | CCCCCCCCCc1ccc(C(=O)Nc2cc(C)ccc2C(=O)OC)cc1 | > 600 | > 120 | > 120 | Activity [20]: inactive; Activity [21]: inactive; Activity [22]: inactive; Activity ([12]; time 130.0 min): inactive; inhibition [13]: inactive; Activity [23]: inactive
12 | CCCCCCCCCCCCc1ccc(C(=O)Nc2ccc(C)cc2C(=O)O)cc1 | 26.1 | 10.7 | 16.5 | Activity [2]: Active; Activity [4]: Active
13 | CCCCCCCCCCc1ccc(C(=O)Nc2ccc(C)cc2C(=O)O)cc1 | 23.8 | 15.5 | 22.8 | 
14 | CCCCCCCSc1ccc(C(=O)Nc2ccccc2C(=O)O)cc1 | 29 |  | 27.9 | 
15 | CCCCCCCCc1ccc(C(=O)Nc2ccc(C(F)(F)F)cc2C(=O)O)cc1 |  | 10.5 | 14.2 | 
16 | CCCCCCCCCc1ccc(C(=O)Nc2ccc(C)cc2C(=O)O)cc1 | 33.8 | 21.6 | 30 | 
17 | CCCCCCCOc1ccc(C(=O)Nc2ccccc2C(=O)O)cc1 | 37 |  | 30 | 
18 | CCCCCCCCOc1ccc(C(=O)Nc2cc(C)ccc2C(=O)O)cc1 | 29.8 | 19.3 |  | 
19 | CCCCCCCCCc1ccc(C(=O)Nc2ccc(C)cc2C(=O)OC)cc1 | > 600 |  |  | 
20 | CCCCCCCCNc1ccc(C(=O)Nc2ccc(C)cc2C(=O)O)cc1 | 73.2 |  | 36.4 | 
21 | CCCCCCCNc1ccc(C(=O)Nc2ccccc2C(=O)O)cc1 | 87.4 |  | 41.3 | 
